{"source": "patent US20220339135A1", "about": "“COMPOSITIONS AND METHODS FOR MODULATING AN INFLAMMATORY RESPONSE” (Enzychem Lifesciences Corporation, priority 2019, published 2022)", "key": {"CXCL8 in THP-1 cells": {"test_system": "CXCL8 in THP-1 cells", "test": "MSU crystal-induced CXCL8 in CD36 silenced THP-1 cells, ELISA", "format": "cell-based, human", "settings": "PLAG 10, 100 μg/ml", "method": "The specific siRNA of CD36 (sc-29995) and control siRNA (sc-37007) were purchased from Santa Cruz Biotechnology. Cells were transfected with 50 nM of either the targeting or control siRNA using HiPerFect Transfection Reagent (Qiagen, Hilden, Germany) for 24 h. The knockdown efficiency of siRNAs was confirmed by Western blot analysis.\nTransfected THP-1 cells were pre-incubated with PLAG (10, 100 μg/ml) for 1 hour and then stimulated with MSU crystal (400 μg/ml). After 24 hours, cells were centrifuged, and the supernatant was harvested. The concentrations of CXCL8 in the supernatant of THP-1 cells were measured using Human CXCL8 ELISA kit (BD bioscience, New Jersey, USA) according to the manufacturer's instructions. The cytokine levels were estimated by interpolation from a standard curve using an ELISA reader (Molecular Devices, Sunnyvale, USA) at 450 nm."}, "5-FU-induced neutropenia": {"test_system": "5-FU-induced neutropenia", "test": "5-FU-induced neutropenia in mice", "format": "in vivo", "settings": "for Mean Duration of Neutropenia in Days (±SE, range) / Mean the First Day Neutropenia (ANC <500 cells/μL) (±SE, range): 5-FU 100 mg/kg", "method": "Male BALB/c mice (8 weeks of age) were randomly divided into 3 cohorts; control cohort (n=5), EC-18 125 mg/kg-treated cohort (n=5) and EC-18 250 mg/kg (n=5). The mice were intraperitoneally (i.p.) injected once with 100 mg/kg 5-FU to induce neutropenia, as shown in the experimental scheme (FIG. 46A). EC-18 was suspended in phosphate-buffered saline (PBS) and orally administrated at a dose of 125 or 250 mg/kg once a day, starting on the same day of 5-FU injection. The control cohort was administered PBS only during the experiment. The whole blood was collected from the orbital sinuses using EDTA-free capillary tubes (Kimble Chase Life Science and Research Products LLC, FL, USA) and collection tubes containing K3E-K3EDTA (Greiner Bio-One International, Kremsmünster, Austria). The blood cells were counted and classified by complete blood count (CBC) analysis using Mindray BC-5000 auto-hematology analyzer (Shenzhen Mindray Biomedical Electronics, Guangdong Sheng, China).\nThe results were expressed as the mean±standard deviation (SD). Statistical analysis was performed using a Student's paired t-test and p values <0.05 were considered statistically significant. A […] Log-rank (Mantel-Cox) test was used to compare the duration of neutropenia and time to recovery from neutropenia between control and EC-18-treated cohorts."}, "[1]": {"test_system": "NET formation of neutrophil, bone marrow-derived cells", "test": "NETosis of PAK-introduced bone marrow-derived cells", "format": "cell-based", "settings": "PAK/PLAG vs PAK", "method": "2 hours after PAK infection, bone marrow-derived cells were harvested and detected extracellular DNA-elastase complex by using ELISA and visualized by using confocal microscopy (×400) or scanning electron microscope (SEM) (×8000). […] cells were washed with PBS and mounted in DAPI-containing fluorescence microscopy mounting medium (Invitrogen). Samples were analyzed with a laser scanning confocal microscope (Carl Zeiss, Oberkochen, Germany)."}, "[2]": {"test_system": "ERK, p38 MAPK, JNK in THP-1 cells", "test": "Gemcitabine-induced phosphorylation of ERK, p38 MAPK, JNK, western blot", "format": "cell-based, human", "method": "Total cells were lysed on ice for 30 minutes in RIPA buffer composed of 50 mM Tris-HCl (pH 7.4), 150 mM NaCl, 2 mM EDTA, 1% NP-40, 0.5% sodium deoxycholate, 0.1% SDS, 1 mM phenylmethylsulfonyl fluoride (PMSF), 10 mM sodium fluoride, 2 mM sodium pyrophosphate, 10 mM β-glycerophosphate, 10 mM sodium orthovanadate. Membrane-and-cytoplasmic protein fractions of cultured cells were obtained with Mem-PER Plus Membrane Protein Extraction Kit (Thermo Scientific, MA, USA) according to the manufacturer's instructions. The lysates were centrifuged at 13,000 rpm for 20 minutes at 4° C. and protein concentrations were determined using the Bradford assay (Bio-Rad Laboratories). Denatured samples were mixed with a 5×SDS-PAGE loading buffer and heated to 100° C. for 15 min. The samples were separated on the 10% of SDS-PAGE gel and transferred to polyvinylidene difluoride (PVDF) membranes (Merck Millipore Corporation, MA, USA). Membranes were blocked with 5% non-fat milk in PBS (10 mM Tris-HCl, pH7.5, 150 mM NaCl) for 1 h and probed with primary antibodies against ERK1/2, phospho-ERK1/2, P38, phospho-P38, SAPK/JNK, phospho-SAPK/JNK, Na, K-ATPase, α-Tubulin, and β-actin from Cell Signaling Technology (MA, USA), Rac1 from Merck Millipore Corporation), p47phox and phospho-p47phox from Invitrogen, adenosine receptor A1 from Abcam, β arrestin-1 from Santa Cruz Technology for overnight at 4° C. The blots were washed and incubated with appropriate secondary antibodies and visualized using Pierce ECL Western Blotting Substrate (Thermo Scientific)."}, "[3]": {"test_system": "citrullinated histone H3 in dHL-60 cells", "test": "Histone H3 citrullination, western blot", "format": "cell-based, human", "settings": "time-dependent", "method": "dHL-60 cells were lysed on ice for 30 minutes in RIPA buffer composed of 50 mM Tris-HCl (pH 7.4), 150 mM NaCl, 2 mM EDTA, 1% NP-40, 0.5% sodium deoxycholate, 0.1% SDS, 1 mM phenylmethylsulfonyl fluoride (PMSF), 10 mM sodium fluoride, 2 mM sodium pyrophosphate, 10 mM β-glycerophosphate, 10 mM sodium orthovanadate. The lysates were centrifuged at 13,000 rpm for 20 minutes at 4° C. and protein concentrations were determined using the Bradford assay (Bio-Rad Laboratories). Denatured samples were mixed with a 5×SDS-PAGE loading buffer and heated to 100° C. for 15 min. The samples were separated on the 10% of SDS-PAGE gel and transferred to polyvinylidene difluoride (PVDF) membranes (Merck Millipore Corporation, MA, USA). Membranes were blocked with 5% non-fat milk in PBS (10 mM Tris-HCl, pH7.5, 150 mM NaCl) for 1 h and probed with primary antibodies against histone H3 (citrulline R2+R8+R17) from abcam (USA) and β-actin from cell signaling (USA) for overnight at 4° C. The blots were washed and incubated with appropriate secondary antibodies and visualized using Pierce™ ECL Western Blotting Substrate (Thermo Scientific)."}}, "note": "Values joined by “and” are separate entries in the source; they are usually repeats but may differ in a detail not shown here. Equal entries are not always repeated."}
{"smiles": "CCCCC/C=C\\C/C=C\\CCCCCCCC(=O)OC(COC(C)=O)COC(=O)CCCCCCCCCCCCCCC", "note": "(racemic) [PLAG, 1-palmitoyl-2-linoleoyl-3-acetylglycerol]", "values": [{"measurement": "decrease of CXCL8 induced by MSU crystal", "setting": "CXCL8 in THP-1 cells", "value": "still shown"}, {"measurement": "Mean Duration of Severe Neutropenia in Days (±SE, range)", "setting": "5-FU-induced neutropenia; EC-18 125 mg/kg", "value": "2 (6-7) Days"}, {"measurement": "Mean Number of Days to Recovery - ANC ≥ 500/μL (±SE, range)", "setting": "5-FU-induced neutropenia; EC-18 125 mg/kg", "value": "7.4 ± 0.55 (7-8) Days"}, {"measurement": "Mean Number of Days to Recovery - ANC ≥ 1000/μL (±SE, range)", "setting": "5-FU-induced neutropenia; EC-18 125 mg/kg", "value": "8 ± 1.22 (7-10) Days"}, {"measurement": "Number of Individuals of Severe Neutropenia (ANC <100 cells/μL)", "setting": "5-FU-induced neutropenia; EC-18 125 mg/kg", "value": "1/5"}, {"measurement": "Mean Duration of Neutropenia in Days (±SE, range)", "setting": "5-FU-induced neutropenia; EC-18 125 mg/kg", "value": "2.6 ± 0.55 (5-8) Days"}, {"measurement": "Mean the First Day Neutropenia (ANC <500 cells/μL) (±SE, range)", "setting": "5-FU-induced neutropenia; EC-18 125 mg/kg", "value": "5.8 ± 0.45 (5-6) days"}, {"measurement": "Nadir of ANC", "setting": "5-FU-induced neutropenia; EC-18 125 mg/kg, 125 mg/kg", "value": "236±4.47 cells/μL and 236 ± 121.57 cells/μL"}, {"measurement": "Mean Duration of Severe Neutropenia in Days (±SE, range)", "setting": "5-FU-induced neutropenia; EC-18 250 mg/kg", "value": "2 (6-7) Days"}, {"measurement": "Mean Number of Days to Recovery - ANC ≥ 500/μL (±SE, range)", "setting": "5-FU-induced neutropenia; EC-18 250 mg/kg", "value": "7.6 ± 0.55 (7-8) Days"}, {"measurement": "Mean Number of Days to Recovery - ANC ≥ 1000/μL (±SE, range)", "setting": "5-FU-induced neutropenia; EC-18 250 mg/kg", "value": "8.8 ± 1.09 (7-10) Days"}, {"measurement": "Number of Individuals of Severe Neutropenia (ANC <100 cells/μL)", "setting": "5-FU-induced neutropenia; EC-18 250 mg/kg", "value": "1/5"}, {"measurement": "Mean Duration of Neutropenia in Days (±SE, range)", "setting": "5-FU-induced neutropenia; EC-18 250 mg/kg", "value": "3.0 ± 0.71 (5-8) Days"}, {"measurement": "Mean the First Day Neutropenia (ANC <500 cells/μL) (±SE, range)", "setting": "5-FU-induced neutropenia; EC-18 250 mg/kg", "value": "5.8 ± 0.45 (5-6) days"}, {"measurement": "Nadir of ANC", "setting": "5-FU-induced neutropenia; EC-18 250 mg/kg, 250 mg/kg", "value": "158±11.32", "unit": "cells/μL"}, {"measurement": "time of recovery to an ANC≥500 or 1000 cells/μL", "setting": "5-FU-induced neutropenia; EC-18 125 and 250 mg/kg-treated cohorts", "value": "significantly reduced"}, {"measurement": "5-FU-induced reduction of blood monocytes", "setting": "5-FU-induced neutropenia; EC-18 125 or 250mpk", "value": "remarkably mitigated"}, {"measurement": "duration of severe neutropenia", "setting": "5-FU-induced neutropenia; EC-18, dose not split in text", "value": 2, "unit": "days"}, {"measurement": "individuals that experienced severe neutropenia (ANC<100 cells/μL)", "setting": "5-FU-induced neutropenia; both EC-18 125 and 250 mg/kg-treated cohorts", "value": 20, "unit": "%"}, {"measurement": "NET formation of neutrophil", "setting": "[1]", "value": "accelerated"}, {"measurement": "gemcitabine-induced phosphorylation of ERK and p38 MAPK", "setting": "[2]", "value": "dose-dependently decreased"}, {"measurement": "gemcitabine-induced phosphorylation of JNK", "setting": "[2]", "value": "did not"}, {"measurement": "histone H3 citrullination", "setting": "[3]", "value": "induced"}]}
